Laboratory results: patent US20170363612A1, “COMPOSITIONS AND METHODS RELATING TO PROLIFERATIVE DISORDERS” (Wayne State University, priority 2014, published 2017)
Several values for one entry are separate records, joined by “and”; a condition that tells them apart may be missing. Equal entries are not always repeated. Where two headings read alike, the source gives them in different places.

Columns and labels:
[1] = biological target: T1, topoisomerase I (Homo sapiens, UniProt P11387); details: cited from earlier work
T1 sequence (P11387 1-765): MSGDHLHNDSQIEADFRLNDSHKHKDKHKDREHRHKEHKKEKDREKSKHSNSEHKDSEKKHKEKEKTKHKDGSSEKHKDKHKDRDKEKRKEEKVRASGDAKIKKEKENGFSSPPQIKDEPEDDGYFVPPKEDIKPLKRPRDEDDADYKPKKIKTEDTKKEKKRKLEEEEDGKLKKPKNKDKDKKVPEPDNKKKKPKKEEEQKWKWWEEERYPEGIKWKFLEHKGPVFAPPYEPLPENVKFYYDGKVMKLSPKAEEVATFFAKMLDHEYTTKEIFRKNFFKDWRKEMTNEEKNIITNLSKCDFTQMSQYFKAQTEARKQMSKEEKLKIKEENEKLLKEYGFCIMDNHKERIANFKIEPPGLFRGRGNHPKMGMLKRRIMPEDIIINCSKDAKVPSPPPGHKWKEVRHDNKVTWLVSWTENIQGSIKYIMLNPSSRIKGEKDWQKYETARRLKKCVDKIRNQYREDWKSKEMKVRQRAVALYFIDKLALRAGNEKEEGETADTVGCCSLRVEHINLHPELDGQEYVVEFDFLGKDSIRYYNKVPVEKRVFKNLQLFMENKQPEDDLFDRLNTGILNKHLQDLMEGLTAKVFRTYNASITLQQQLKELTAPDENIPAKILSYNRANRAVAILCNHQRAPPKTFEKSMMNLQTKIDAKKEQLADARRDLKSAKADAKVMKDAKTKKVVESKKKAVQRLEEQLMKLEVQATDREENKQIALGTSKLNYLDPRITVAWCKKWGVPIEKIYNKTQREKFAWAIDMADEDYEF

[2] = system: PKC; details: cited from earlier work
[3] = system: SET Ribosome
[4] = system: SET Ribosome; assay: Topotecan Modifier Assay on TPA Reference Standard response, HEK293 TR cell lines; type: cell-based, human; details: HEK293 hTRdm-fLUC#13 and mTRdm-fLUC#45; with 100 nM TPA; 6 hours
[5] = system: SET Ribosome; assay: Topotecan dose response assay, MCF7 TR Cell Panel; type: cell-based, human
[6] = in vivo, po; cited from earlier work
[7] = system: SET Ribosome; assay: TPA Reference Standard Response Modifier Assay with ribosome binding translation inhibitors, HEK293 hTRdm-fLUC#13; type: cell-based, human; details: with 100 nM TPA, 6 hours
[8] = LD50 in rats (quoted); details: oral 0.00013 mg/kg/day
[9] = cited from earlier work
[10] = cited from earlier work; remark: listed apart in the source
[11] = LD50 in mice (quoted); details: oral 0.000054 mg/kg/day vs mouse LD50

In the case of `CCc1c2c(nc3ccc(O)cc13)-c1cc3c(c(=O)n1C2)COC(=O)[C@]3(O)CC` [SN-38, 7-ethyl-10-hydroxy-camptothecin], the “potency relative to irinotecan” value [1] is given as 1000 X.

In the case of Bryostatin 2, the “enzyme binding constant relative to bryostatin 1” value [2] is listed as 10 times.

In the case of `CC[C@@]1(O)C(=O)OCc2c1cc1n(c2=O)Cc2cc3c(CN(C)C)c(O)ccc3nc2-1.Cl` [Topotecan, (S)-10-[(dimethylamino)methyl]-4-ethyl-4,9-dihydroxy-1H-pyrano[3′,4′:6,7]indolizino[1,2-b]quinoline-3,14(4H,12H)-dione monohydrochloride], the “SET Response” value ([3]; High dose (HD) 10 uM) is reported as “Antagonist”, the “SET Response” value ([3]; Low dose (LD): Calon 1 uM, Topotecan 100 nM) is reported as “Agonist” and the “doses completely blocking SET Ribosome activity” value [4] is reported as greater than 5 µM. The IC100 ([5]; MCF7 TR Cell Panel) was greater than 5 µM, the “dose of maximal SET response” value ([5]; MCF7 TR Cell Panel) was 10 nM and the “dose range of SET Agonist activity” value ([5]; MCF7 TR Cell Panel) was 2 to 100 nM. For the same compound, the “concentrations giving complete SET Ribosome block” value ([5]; MCF7 TR Class 3 and Class 4 lines, 6 hours) was no less than 5 µM, the oral bioavailability [6] was roughly 40% and the “time of peak plasma concentration post-administration” value [6] was 1 to 2 h.

In the case of `CC[C@H]1CN2CCc3cc(OC)c(OC)cc3[C@@H]2C[C@@H]1C[C@H]1NCCc2cc(OC)c(OC)cc21` [emetine, (2S, 3R, 11bS)-2-{{(1R)-6,7-dimethoxy-1,2,3,4-tetrahydroisoquinolin-1-yl]methyl}-3-ethyl-9,10-dimethoxy-2,3,4,6,7,11b-hexahydro-1H-pyrido[2,1-a] isoquinoline], the IC50 ([7]; Homo sapiens, HEK293, read-out: IC50, SET ribosome inhibition) is reported as 175 nM, the “IC100 (100% SET Ribosome inhibition)” value [7] is reported as 2.5 µM and 2.5 to 10 µM and the “factor by which the IC100 dose is lower than the rat LD50” value [8] is reported as > 5,231 ×. For the same compound, the LD50 ([9]; subcutaneous) was 58 µM, the LD50 ([10]; intravenous) was 5 µM and the LD50 ([10]; oral) was 35 µM.

For `COc1ccc(C[C@H]2NC[C@H](O)[C@H]2OC(C)=O)cc1` [anisomycin, (2R,3S,4S)-4-hydroxy-2-(4-methoxybenzyl)-pyrrolidin-3-yl acetate], the “factor by which the IC100 dose is lower than a toxic concentration” value [11] is listed as > 14,000 × and the LD50 ([9]; route not stated) is listed as 75 to 200 mg/kg.
